From ChEMBL document CHEMBL2021867, “Systematic Chemical Mutagenesis Identifies a Potent Novel Apratoxin A/E Hybrid with Improved in Vivo Antitumor Activity” (ACS Med Chem Lett, 2011)
Active and inactive are the calls of the source. The calls are words filed in the database; no cut-off is given here.

What was measured:
[1] = molecular target: Hepatocyte growth factor receptor (Homo sapiens) (UniProt P08581); test: Inhibition of Met expressed human HCT116 cells by immunoblotting assay; format: cell-based; details: HCT-116
Sequence of Hepatocyte growth factor receptor (Homo sapiens) (P08581 whole entry): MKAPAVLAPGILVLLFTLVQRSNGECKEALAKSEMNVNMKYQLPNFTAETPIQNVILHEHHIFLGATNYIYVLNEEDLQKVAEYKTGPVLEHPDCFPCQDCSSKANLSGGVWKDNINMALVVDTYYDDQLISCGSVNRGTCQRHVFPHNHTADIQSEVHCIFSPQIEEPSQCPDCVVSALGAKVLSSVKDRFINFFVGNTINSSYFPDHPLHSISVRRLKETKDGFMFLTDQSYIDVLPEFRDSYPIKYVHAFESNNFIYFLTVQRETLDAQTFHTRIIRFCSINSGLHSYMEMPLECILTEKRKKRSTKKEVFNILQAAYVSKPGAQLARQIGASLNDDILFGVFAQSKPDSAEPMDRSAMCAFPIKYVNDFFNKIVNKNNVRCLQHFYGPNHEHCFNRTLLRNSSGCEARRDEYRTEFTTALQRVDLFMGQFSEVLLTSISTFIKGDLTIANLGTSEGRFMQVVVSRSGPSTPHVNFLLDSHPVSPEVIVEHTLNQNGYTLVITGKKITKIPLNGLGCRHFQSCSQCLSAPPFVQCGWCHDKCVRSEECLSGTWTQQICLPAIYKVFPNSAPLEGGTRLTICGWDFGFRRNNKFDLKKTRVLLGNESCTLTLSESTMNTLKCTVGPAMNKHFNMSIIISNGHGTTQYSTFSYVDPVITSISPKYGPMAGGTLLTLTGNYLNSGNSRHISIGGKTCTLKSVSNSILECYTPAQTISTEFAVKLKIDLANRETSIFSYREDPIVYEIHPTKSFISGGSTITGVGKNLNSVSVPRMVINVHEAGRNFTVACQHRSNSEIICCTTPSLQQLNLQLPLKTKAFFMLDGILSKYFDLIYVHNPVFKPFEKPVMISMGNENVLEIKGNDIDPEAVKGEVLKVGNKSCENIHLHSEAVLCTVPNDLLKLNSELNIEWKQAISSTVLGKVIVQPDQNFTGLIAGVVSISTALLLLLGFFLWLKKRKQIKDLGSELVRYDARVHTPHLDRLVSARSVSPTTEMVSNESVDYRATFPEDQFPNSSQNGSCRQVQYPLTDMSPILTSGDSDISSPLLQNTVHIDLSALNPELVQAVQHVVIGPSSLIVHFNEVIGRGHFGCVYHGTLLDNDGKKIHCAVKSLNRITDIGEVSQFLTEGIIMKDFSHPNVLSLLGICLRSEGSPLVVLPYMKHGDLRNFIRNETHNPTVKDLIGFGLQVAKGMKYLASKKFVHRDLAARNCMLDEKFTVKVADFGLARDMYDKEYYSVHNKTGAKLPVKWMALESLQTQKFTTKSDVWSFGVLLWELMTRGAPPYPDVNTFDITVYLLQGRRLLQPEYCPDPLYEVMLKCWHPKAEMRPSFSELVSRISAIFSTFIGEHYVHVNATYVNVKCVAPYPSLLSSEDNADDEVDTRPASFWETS

Mus musculus [2] = test: Irreversible toxicity in human HCT116 cells xenografted nu/nu mouse at > 0.375 mg/kg, ip measured post compound withdrawal; format: organism-based, HCT-116; design: dose 0.375 mg/kg, route intraperitoneal; details: in vivo
Mus musculus [3] = test: Toxicity in human HCT116 cells xenografted nu/nu mouse assessed as mortality at > 0.375 mg/kg, ip; format: organism-based, HCT-116; design: dose 0.375 mg/kg, route intraperitoneal; details: in vivo
Mus musculus [4] = test: Toxicity in human HCT116 cells xenografted nu/nu mouse assessed as body weight loss at > 0.375 mg/kg, ip measured post compound withdrawal; format: organism-based, HCT-116; design: dose 0.375 mg/kg, route intraperitoneal; details: in vivo
Mus musculus [5] = test: Toxicity in human HCT116 cells xenografted nu/nu mouse assessed as mortality at > 0.375 mg/kg, ip measured post compound withdrawal; format: organism-based, HCT-116; design: dose 0.375 mg/kg, route intraperitoneal; details: in vivo
HCT-116 = test: Antitumor activity against human HCT116 cells xenografted in nu/nu mouse model at 0.25 mg/kg, ip dosed daily for over 2 weeks; format: functional, organism-based; design: dose 0.25 mg/kg
Mus musculus [6] = test: Reduction in VEGFR2 level in liver of human HCT116 cells xenografted in nu/nu mouse at 0.25 mg/kg, ip dosed daily for over 2 weeks by Western blot; format: functional, organism-based; design: dose 0.25 mg/kg; details: HCT-116
Mus musculus [7] = test: Reduction in VEGFR2 level in tumor of human HCT116 cells xenografted in nu/nu mouse at 0.25 mg/kg, ip dosed daily for over 2 weeks by Western blot; format: functional, organism-based; design: dose 0.25 mg/kg; details: HCT-116
Mus musculus [8] = test: Toxicity in human HCT116 cells xenografted nu/nu mouse assessed as body weight loss at > 0.375 mg/kg, ip; format: organism-based, HCT-116; design: dose 0.375 mg/kg, route intraperitoneal; details: in vivo
Mus musculus [9] = test: Toxicity in human HCT116 cells xenografted nu/nu mouse assessed as liver histology changes at 0.25 mg/kg, ip dosed daily for over 2 weeks; format: organism-based, HCT-116; design: dose 0.25 mg/kg, route intraperitoneal; details: in vivo, 336 h
Mus musculus [10] = test: Reduction in PDGFRbeta level in tumor of human HCT116 cells xenografted in nu/nu mouse at 0.25 mg/kg, ip dosed daily for over 2 weeks by Western blot; format: functional, organism-based; design: dose 0.25 mg/kg; details: HCT-116
Oryctolagus cuniculus [11] = organism: Oryctolagus cuniculus; test: Inhibition of cotranslational processing of human PDGFRalpha in rabbit reticulocyte assessed as [35S-methionine] incorporation using canine pancreatic microsomal membranes by SDS-PAGE analysis; format: functional, microsomes; details: Microsome
Oryctolagus cuniculus [12] = organism: Oryctolagus cuniculus; test: Inhibition of cotranslational processing of in rabbit reticulocyte assessed as [35S-methionine] incorporation using canine pancreatic microsomal membranes by SDS-PAGE analysis; format: functional, microsomes; details: Microsome
Mus musculus [13] = test: Toxicity in human HCT116 cells xenografted nu/nu mouse assessed as kidney histology changes at 0.25 mg/kg, ip dosed daily for over 2 weeks; format: organism-based, HCT-116; design: dose 0.25 mg/kg, route intraperitoneal; details: in vivo, 336 h
Mus musculus [14] = test: Toxicity in human HCT116 cells xenografted nu/nu mouse assessed as weight loss at 0.25 mg/kg, ip dosed daily for over 2 weeks; format: organism-based, HCT-116; design: dose 0.25 mg/kg, route intraperitoneal; details: in vivo, 336 h

## CC[C@H](C)[C@H]1C(=O)N2CCC[C@H]2C(=O)O[C@H](C(C)(C)C)C[C@@H](C)C[C@H](O)[C@H](C)C2=N[C@@H](/C=C(\C)C(=O)N[C@@H](C)C(=O)N(C)[C@@H](C)C(=O)N1C)CS2
[1]
  inhibition: inactive

## CC[C@H](C)[C@H]1C(=O)N2CCC[C@H]2C(=O)O[C@H](C(C)(C)C)C[C@@H](C)C[C@H](O)[C@H](C)C2=N[C@@H](CCC(=O)N[C@@H](Cc3ccc(OC)cc3)C(=O)N(C)[C@@H](C)C(=O)N1C)CS2 [APRATOXIN S4]
Mus musculus [2]
  Activity: Non-toxic
Mus musculus [3]
  Activity: Non-toxic
Mus musculus [4]
  Activity: Non-toxic
Mus musculus [5]
  Activity: Non-toxic
HCT-116
  Activity: Active
Mus musculus [6]
  Activity: inactive
Mus musculus [7]
  Activity: Active
Mus musculus [8]
  Activity: Non-toxic
Mus musculus [9]
  Activity: Non-toxic
Mus musculus [10]
  Activity: Active
Oryctolagus cuniculus [11]
  inhibition: Active
Oryctolagus cuniculus [12]
  inhibition: Dose-dependent effect
Mus musculus [13]
  Activity: Non-toxic
Mus musculus [14]
  Activity: Non-toxic

## COc1ccc(C[C@@H]2NC(=O)/C(C)=C/[C@H]3CSC(=N3)[C@@H](C)[C@@H](O)C[C@H](C)C[C@@H](C(C)(C)C)OC(=O)[C@@H]3CCCN3C(=O)[C@H](C)N(C)C(=O)[C@H](C)N(C)C2=O)cc1
[1]
  inhibition: inactive

## CC[C@H](C)[C@H]1C(=O)N(C)[C@@H](C)C(=O)O[C@H](C(C)(C)C)C[C@@H](C)C[C@H](O)[C@H](C)C2=N[C@@H](/C=C(\C)C(=O)N[C@@H](Cc3ccc(OC)cc3)C(=O)N(C)[C@@H](C)C(=O)N1C)CS2
[1]
  inhibition: Active
